Assays:
Type in all cases: physicochemical
[1] = Transformation by slurry in other solvents (n-hexane, toluene, water) and drying, form determined by XRD
Source text: Similarly to example 6 Zolmitriptan samples were slurried from other solvents or solvent systems after dissolution and precipitation from a specific solvent.

[2] = Transformation by pressing (crystal form before and after pressing); conditions: for Crystal Form after pressing: 100 mg pressed with approximately 1300 psi during 2 minutes
[3] = Transformation of zolmitriptan crystal forms by heating in a conventional oven, form determined by XRD; conditions: about 1.5 to 2 hours, conventional oven, XRD
Procedure: Zolmitriptan (0.5 g) crystalline forms were heated in a conventional oven for a period of about 1.5 to 2 hours at different temperatures. The crystal form of the samples was determined by XRD before and after heating.

Row | SMILES | XRD sample (form after treatment) ([1]; Toluene, dried 63 °C under reduced pressure) | XRD sample (form after treatment) ([1]; Water, dried 63 °C under reduced pressure) | XRD sample (form after treatment) ([1]; immersed in 10 v/w Toluene, filtered, sucked ½ hour on Buchner) | XRD sample (form after treatment) ([1]; immersed in 10 v/w Water, filtered, sucked ½ hour on Buchner) | XRD sample (form after treatment) ([1]; immersed in 10 v/w n-Hexane, filtered, sucked ½ hour on Buchner) | XRD sample (form after treatment) ([1]; n-Hexane, dried 63 °C under reduced pressure) | Crystal Form after pressing [2] | transformation to other crystal form on pressing [2] | Crystal form after heating ([3]; heating temp. 60 °C) | Crystal form after heating ([3]; heating temp. 90 °C)
1 | CN(C)CCc1c[nH]c2ccc(C[C@H]3COC(=O)N3)cc12 [Form N] | Form A | Form A | Form K | Form A | Form D | Form A | Form N | not transform to other crystal form | N + A | 
2 | CN(C)CCc1c[nH]c2ccc(C[C@H]3COC(=O)N3)cc12 [Form L] |  |  |  |  |  |  | Form L | not transform to other crystal form |  | A +
